biological target: T1, PERK (Homo sapiens, UniProt Q9NZJ5); assay: PERK enzyme assay (HTRF); format: biochemical; settings: PERK Enzyme (500 μM ATP) IC50; at least one experimental run; read-out: PERK Activity
T1 sequence (Q9NZJ5 30-1116): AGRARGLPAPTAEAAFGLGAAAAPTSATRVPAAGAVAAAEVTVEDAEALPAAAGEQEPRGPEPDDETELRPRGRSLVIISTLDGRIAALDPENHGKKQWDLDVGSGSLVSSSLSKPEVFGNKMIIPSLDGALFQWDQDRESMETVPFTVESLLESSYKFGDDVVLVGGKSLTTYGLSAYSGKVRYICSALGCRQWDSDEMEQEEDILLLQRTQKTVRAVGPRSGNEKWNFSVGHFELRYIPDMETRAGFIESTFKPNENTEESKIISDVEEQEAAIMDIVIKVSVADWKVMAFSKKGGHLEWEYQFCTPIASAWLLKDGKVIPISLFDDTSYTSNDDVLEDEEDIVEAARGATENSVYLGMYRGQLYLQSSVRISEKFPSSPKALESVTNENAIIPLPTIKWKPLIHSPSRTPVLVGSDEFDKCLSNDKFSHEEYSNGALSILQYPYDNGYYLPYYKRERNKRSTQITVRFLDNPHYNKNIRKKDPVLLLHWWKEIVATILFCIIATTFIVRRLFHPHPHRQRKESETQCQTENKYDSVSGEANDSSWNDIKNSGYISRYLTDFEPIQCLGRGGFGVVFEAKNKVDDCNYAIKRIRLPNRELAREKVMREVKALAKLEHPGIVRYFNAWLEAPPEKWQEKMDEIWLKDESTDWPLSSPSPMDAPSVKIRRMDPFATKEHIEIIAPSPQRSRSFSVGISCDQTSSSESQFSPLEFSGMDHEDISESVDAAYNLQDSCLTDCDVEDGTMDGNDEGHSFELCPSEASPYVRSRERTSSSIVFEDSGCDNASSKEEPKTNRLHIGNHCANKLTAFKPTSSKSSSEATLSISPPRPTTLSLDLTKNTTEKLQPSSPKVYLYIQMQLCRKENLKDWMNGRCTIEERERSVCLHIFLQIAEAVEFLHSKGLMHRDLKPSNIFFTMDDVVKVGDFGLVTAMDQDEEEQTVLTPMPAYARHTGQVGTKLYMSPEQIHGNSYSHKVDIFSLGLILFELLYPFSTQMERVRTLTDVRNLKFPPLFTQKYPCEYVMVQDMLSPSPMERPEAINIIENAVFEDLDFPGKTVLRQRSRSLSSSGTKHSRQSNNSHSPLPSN
Procedure, shortened: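 GST-PERK (0.75 nM final) pre-incubated 30–60 min with compound (≤1% DMSO) in HEPES pH 7.5/CHAPS/MgCl2/DTT, then 500 μM ATP and 40 nM biotin-eIF2α added for 60 min. EDTA quench; HTRF detection of phospho-eIF2α (Eu anti-rabbit/streptavidin-APC) read after 2 h; IC50 from concentration series.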

SMILES | IC50 [nM]
CN1C(=O)N(c2ccc(-c3cn(C4CC4)c4ncnc(N)c34)c(F)c2)CC1c1ccc(F)c(F)c1 (stereo not shown) [Example 114, 1-(4-(4-amino-7-cyclopropyl-7H-pyrrolo[2,3-d]pyrimidin-5-yl)-3-fluorophenyl)-4-(3,4-difluorophenyl)-3-methylimidazolidin-2-one] | < 100
Cc1cc(N2CC(c3cc(F)cc(F)c3)N(C)C2=O)ccc1-c1cn(C)c2ncnc(N)c12 (stereo not shown) [Example 118, 1-(4-(4-amino-7-methyl-7H-pyrrolo[2,3-d]pyrimidin-5-yl)-3-methylphenyl)-4-(3,5-difluorophenyl)-3-methylimidazolidin-2-one] | < 100
Cc1cc(N2CC(c3cc(F)cc(F)c3)N(C)C2=O)ccc1-c1cn(C2CC2)c2ncnc(N)c12 (stereo not shown) [Example 119, 1-(4-(4-amino-7-cyclopropyl-7H-pyrrolo[2,3-d]pyrimidin-5-yl)-3-methylphenyl)-4-(3,5-difluorophenyl)-3-methylimidazolidin-2-one] | < 100
CCN1C(=O)N(c2ccc(-c3cn(C4CC4)c4ncnc(N)c34)c(F)c2)CC1c1cc(F)ccc1F (stereo not shown) [Example 120, 1-(4-(4-amino-7-cyclopropyl-7H-pyrrolo[2,3-d]pyrimidin-5-yl)-3-fluorophenyl)-4-(2,5-difluorophenyl)-3-ethylimidazolidin-2-one] | < 100
CN1C(=O)N(c2ccc(-c3cn(C)c4ncnc(N)c34)c(Cl)c2)CC1c1cc(F)cc(F)c1 (stereo not shown) [Example 121, 1-(4-(4-amino-7-methyl-7H-pyrrolo[2,3-d]pyrimidin-5-yl)-3-chlorophenyl)-4-(3,5-difluorophenyl)-3-methylimidazolidin-2-one] | < 100
CN1C(=O)N(c2ccc(-c3cn(C4CC4)c4ncnc(N)c34)c(Cl)c2)CC1c1cc(F)cc(F)c1 (stereo not shown) [Example 122, 1-(4-(4-amino-7-cyclopropyl-7H-pyrrolo[2,3-d]pyrimidin-5-yl)-3-chlorophenyl)-4-(3,5-difluorophenyl)-3-methylimidazolidin-2-one] | < 100
CN1C(=O)N(c2ccc(-c3cn(C)c4ncnc(N)c34)c(F)c2)CC1c1ccc(F)c(Cl)c1 (stereo not shown) [Example 131, 1-(4-(4-amino-7-methyl-7H-pyrrolo[2,3-d]pyrimidin-5-yl)-3-fluorophenyl)-4-(3-chloro-4-fluorophenyl)-3-methylimidazolidin-2-one] | < 100
CN1C(=O)N(c2ccc(-c3cn(C4CC4)c4ncnc(N)c34)c(F)c2)CC1c1ccc(F)c(Cl)c1 (stereo not shown) [Example 132, 1-(4-(4-amino-7-cyclopropyl-7H-pyrrolo[2,3-d]pyrimidin-5-yl)-3-fluorophenyl)-4-(3-chloro-4-fluorophenyl)-3-methylimidazolidin-2-one] | < 100
Cc1nc(N)c2c(-c3ccc(N4CC(c5ccc(Cl)nc5)N(C)C4=O)cc3F)cn(C)c2n1 (stereo not shown) [Example 135, 1-(4-(4-amino-2,7-dimethyl-7H-pyrrolo[2,3-d]pyrimidin-5-yl)-3-fluorophenyl)-4-(6-chloropyridin-3-yl)-3-methylimidazolidin-2-one] | < 100
CN1C(=O)N(c2ccc(-c3cn(C)c4ncnc(N)c34)c(F)c2)CC1C1CCCCCC1 (stereo not shown) [Example 138, 1-(4-(4-amino-7-methyl-7H-pyrrolo[2,3-d]pyrimidin-5-yl)-3-fluorophenyl)-4-cycloheptyl-3-methylimidazolidin-2-one] | < 100
Cc1nc(N)c2c(-c3ccc(N4CC(c5c(F)ccc(F)c5F)N(C)C4=O)cc3F)cn(C)c2n1 (stereo not shown) [Example 139, 1-(4-(4-amino-2,7-dimethyl-7H-pyrrolo[2,3-d]pyrimidin-5-yl)-3-fluorophenyl)-3-methyl-4-(2,3,6-trifluorophenyl)imidazolidin-2-one] | 100 to 1000
CN1C(=O)N(c2ccc(-c3cn(C4CC4)c4ncnc(N)c34)c(F)c2)CC1c1cc(F)ccc1F (stereo not shown) [Example 144, 1-(4-(4-amino-7-cyclopropyl-7H-pyrrolo[2,3-d]pyrimidin-5-yl)-3-fluorophenyl)-4-(2,5-difluorophenyl)-3-methylimidazolidin-2-one] | < 100
CN1C(=O)N(c2ccc(-c3cn(C)c4ncnc(N)c34)c(F)c2)CC1c1ccc2c(c1)CCO2 (stereo not shown) [Example 147, 1-(4-(4-amino-7-methyl-7H-pyrrolo[2,3-d]pyrimidin-5-yl)-3-fluorophenyl)-4-(2,3-dihydrobenzofuran-5-yl)-3-methylimidazolidin-2-one] | < 100
CN1C(=O)N(c2ccc(-c3cn(C4CC4)c4ncnc(N)c34)c(F)c2)CC1c1cccc(Cl)c1 (stereo not shown) [Example 148, 1-(4-(4-amino-7-cyclopropyl-7H-pyrrolo[2,3-d]pyrimidin-5-yl)-3-fluorophenyl)-4-(3-chlorophenyl)-3-methylimidazolidin-2-one] | < 100
CN1C(=O)N(c2ccc(-c3cn(C4CC4)c4ncnc(N)c34)c(F)c2)CC1c1ccccc1 (stereo not shown) [Example 149, 1-(4-(4-amino-7-cyclopropyl-7H-pyrrolo[2,3-d]pyrimidin-5-yl)-3-fluorophenyl)-3-methyl-4-phenylimidazolidin-2-one] | < 100
CN1C(=O)N(c2ccc(-c3cn(C)c4ncnc(N)c34)c(F)c2)CC1c1cc(F)c(F)cc1F (stereo not shown) [Example 156, 1-(4-(4-amino-7-methyl-7H-pyrrolo[2,3-d]pyrimidin-5-yl)-3-fluorophenyl)-3-methyl-4-(2,4,5-trifluorophenyl)imidazolidin-2-one] | < 100
CN1C(=O)N(c2ccc(-c3cn(C4CC4)c4ncnc(N)c34)c(F)c2)CC1c1cc(F)c(F)cc1F (stereo not shown) [Example 157, 1-(4-(4-amino-7-cyclopropyl-7H-pyrrolo[2,3-d]pyrimidin-5-yl)-3-fluorophenyl)-3-methyl-4-(2,4,5-trifluorophenyl)imidazolidin-2-one] | < 100
CN1C(=O)N(c2ccc(-c3cn(C4CC4)c4ncnc(N)c34)c(F)c2)CC1c1ccc(F)cc1 (stereo not shown) [Example 162, 1-(4-(4-amino-7-cyclopropyl-7H-pyrrolo[2,3-d]pyrimidin-5-yl)-3-fluorophenyl)-4-(4-fluorophenyl)-3-methylimidazolidin-2-one] | < 100
CN1C(=O)N(c2ccc(-c3cn(C4CC4)c4ncnc(N)c34)c(F)c2)CC1c1ccc(Cl)cc1 (stereo not shown) [Example 167, 1-(4-(4-amino-7-cyclopropyl-7H-pyrrolo[2,3-d]pyrimidin-5-yl)-3-fluorophenyl)-4-(4-chlorophenyl)-3-methylimidazolidin-2-one] | < 100
CCN1C(=O)N(c2ccc(-c3cn(C4CC4)c4ncnc(N)c34)c(F)c2)CC1c1cc(F)cc(F)c1 (stereo not shown) [Example 170, 1-(4-(4-amino-7-cyclopropyl-7H-pyrrolo[2,3-d]pyrimidin-5-yl)-3-fluorophenyl)-4-(3,5-difluorophenyl)-3-ethylimidazolidin-2-one] | < 100
CN1C(=O)N(c2ccc(-c3cn(C4CC4)c4ncnc(N)c34)c(F)c2)CC1c1cc(F)cc(F)c1 (stereo not shown) [Example 176, 1-(4-(4-amino-7-cyclopropyl-7H-pvrrolo[2,3-d]pyrimidin-5-yl)-3-fluorophenyl)-4-(3,5-difluorophenyl)-3-methylimidazolidin-2-one] | < 100

system: prion infected mice; assay: not given; settings: cited from earlier work

SMILES | neuroprotective effect and clinical signs of disease
Cn1cc(-c2ccc3c(c2)CCN3C(=O)Cc2cccc(C(F)(F)F)c2)c2c(N)ncnc21 [GSK2606414, 7-methyl-5-(1-{[3-(trifluoromethyl)phenyl]acetyl}-2,3-dihydro-1H-indol-5-yl)-7H-pyrrolo[2,3-d]pyrimidin-4-amine] | provide a neuroprotective effect and prevent clinical signs of disease

— patent publication US20180237441A1, “Chemical Compounds” (GlaxoSmithKline Intellectual Property (No.2) Limited, priority 2015, published 2018)
